Results from patent publication US20120121540A1 (priority 2007, published 2012).

Assay: HCV replicon assay (luciferase reporter, ET cell line)
Format: cell-based
Settings: Hepatitis C virus, HCV replicon luciferase activity in ET cells
Experimental: A cell line, ET (Huh-lucubineo-ET) is used for screening of compounds for inhibiting HCV RNA dependent RNA polymerase. The ET cell line is stably transfected with RNA transcripts harboring a I389 luc-ubi-neo/NS3-3′/ET; replicon with firefly luciferase-ubiquitin-neomycin phosphotransferase fusion protein and EMCV-IRES driven NS3-5B polyprotein containing the cell culture adaptive mutations (E1202G; T1280I; K1846T) (Krieger at al, 2001 and unpublished). The ET cells are grown in DMEM (Dulbeco's Modified Eagle's Medium), supplemented with 10% fetal calf serum, 2 mM Glutamine, Penicillin (100 IU/mL)/Streptomycin (100 μg/mL), 1× nonessential amino acids, and 250 μg/mL G418 (“Geneticin”). They are all available through Life Technologies (Bethesda, Md.). The cells are plated at 0.5−1.0×10^4 cells/well in the 96 well plates and incubated for 24 hrs before adding test compound. The compounds are added to the cells to achieve a final concentration of 0.1 nM to 50 μm and a final DMSO (dimethylsulfoxide) concentration of 0.5%. Luciferase activity is measured 48-72 hours later by adding a lysis buffer and the substrate (Catalog number Glo-lysis buffer E2661 and Bright-Glo luciferase system E2620 Promega, Madison, Wis.). Cells should not be too confluent during the assay. Percent inhibition of replication data is plotted relative to no compound control. Under the same condition, cytotoxicity of the compounds are determined using cell proliferation reagent, WST-1 (Roche, Germany). The compounds showing antiviral activities, but no significant cytotoxicities are chosen to determine EC50 and TC50. For these determinations, a 10 point, 2-fold serial dilution for each compound was used, which spans a concentration range of 1000 fold. EC50 and similarly TC50 values were calculated by fitting % inhibition at each concentration to the following equation:
% inhibition=100%/[(EC50/[I])^b+1]
where b is Hill's coefficient.
% inhibition values at a specific concentration, […] for example, can also be derived from the equation above.

SMILES	inhibition at 10 µM
O=C(N[C@H]1C[C@@H]1c1ccccc1)c1nc2c(C(F)(F)F)cc(-c3ccco3)cn2c1Cl (stereo in doubt) [Compound 188, 3-Chloro-6-furan-2-yl-8-trifluoromethyl-imidazo[1,2-a]pyridine-2-carboxylic acid (2-phenyl-cyclopropyl)-amide]	80.5%
COC(=O)[C@@H]1CN(C(=O)c2nc3c(C(F)(F)F)cc(-c4ccoc4)cn3c2Cl)C[C@H]1c1ccccc1 (stereo in doubt) [Compound 221, 1-(3-Chloro-6-furan-3-yl-8-trifluoromethyl-imidazo[1,2-a]pyridine-2-carbonyl)-4-phenyl-pyrrolidine-3-carboxylic Acid Methyl Ester]	73.6%
CN(C)CCNC(=O)[C@@H]1CN(C(=O)c2nc3c(C(F)(F)F)cc(-c4ccoc4)cn3c2Cl)C[C@H]1c1ccccc1 (stereo in doubt) [Compound 224, 1-(3-Chloro-6-furan-3-yl-8-trifluoromethyl-imidazo[1,2-a]pyridine-2-carbonyl)-4-phenyl-pyrrolidine-3-carboxylic Acid (2-dimethylamino-ethyl)-amide]	98.7%
O=C(NCCN1CCOCC1)[C@@H]1CN(C(=O)c2nc3c(C(F)(F)F)cc(-c4ccoc4)cn3c2Cl)C[C@H]1c1ccccc1 (stereo in doubt) [Compound 225]	39.8%
COC(=O)[C@H]1[C@@H](c2ccccc2)CCN1C(=O)c1nc2c(C(F)(F)F)cc(-c3ccoc3)cn2c1Cl (stereo in doubt) [Compound 227, 1-(3-Chloro-6-furan-3-yl-8-trifluoromethyl-imidazO [1,2-a]pyridine-2-carbonyl)-3-phenyl-pyrrolidine-2-carboxylic Acid Methyl Ester]	49.2%
CN(C)CCNC(=O)[C@H]1[C@@H](c2ccccc2)CCN1C(=O)c1nc2c(C(F)(F)F)cc(-c3ccoc3)cn2c1Cl (stereo in doubt) [Compound 230, 1-(3-Chloro-6-furan-3-yl-8-trifluoromethyl-imidazo[1,2-a]pyridine-2-carbonyl)-3-phenyl-pyrrolidine-2-carboxylic Acid (2-dimethylamino-ethyl)-amide]	53.4%
C[C@@H](CNC(=O)c1nc2c(C(F)(F)F)cc(-c3ccoc3)cn2c1Cl)c1ccccc1 (stereo in doubt) [Compound 413, 3-Chloro-6-furan-3-yl-8-trifluoromethyl-imidazo[1,2-a]pyridine-2-carboxylic Acid (2-phenyl-propyl)-amide]	82.8%
CC(C)(C)OC(=O)N[C@H]1CN(C(=O)c2nc3c(C(F)(F)F)cc(-c4ccoc4)cn3c2Cl)C[C@@H]1c1ccccc1 (stereo in doubt) [Compound 456, (-1-(3-Chloro-6-furan-3-yl-8-trifluoromethyl-imidazo[1,2-a]pyridine-2-carbonyl)-4-phenyl-pyrrolidin-3-yl)-carbamic acid tert-butyl ester]	79.3%
CS(=O)(=O)N[C@H]1CN(C(=O)c2nc3c(C(F)(F)F)cc(-c4ccoc4)cn3c2Cl)C[C@@H]1c1ccccc1 (stereo in doubt) [Compound 458, N-(-1-(3-Chloro-6-furan-3-yl-8-trifluoromethyl-imidazo[1,2-a]pyridine-2-carbonyl)-4-phenyl-pyrrolidin-3-yl)-methanesulfonamide]	64.6%
CC(=O)N[C@H]1CN(C(=O)c2nc3c(C(F)(F)F)cc(-c4ccoc4)cn3c2Cl)C[C@@H]1c1ccccc1 (stereo in doubt) [Compound 459, N-(-1-(3-Chloro-6-furan-3-yl-8-trifluoromethyl-imidazo[1,2-a]pyridine-2-carbonyl)-4-phenyl-pyrrolidin-3-yl)-acetamide]	25.5%
O=C(NCc1cccs1)c1cc2cc(-c3ccccc3)cc(I)n2n1 [Compound 102, 7-Iodo-5-phenyl-pyrazolo[1,5-a]pyridine-2-carboxylic Acid (thiophen-2-ylmethyl)-amide]	81%
O=C(NCc1cccs1)c1nc2c(C(F)(F)F)cc(-c3ccccc3)nc2[nH]1 [Compound 103, 5-Phenyl-7-trifluoromethyl-3H-imidazo[4,5-b]pyridine-2-carboxylic acid (thiophen-2-ylmethyl)-amide]	54.7%
O=C(NCc1cccs1)c1[nH]c2c(C(F)(F)F)cc(-c3ccccc3)cc2c1Cl [Compound 104, 3-Chloro-5-phenyl-7-trifluoromethyl-1H-indole-2-carboxylic Acid (thiophen-2-ylmethyl)-amide]	44%
O=C(NCc1cccs1)c1cc2cc(-c3ccco3)cc(Cl)c2[nH]1 [Compound 105, 7-Chloro-5-furan-2-yl-1H-indole-2-carboxylic acid (thiophen-2-ylmethyl)-amide]	58.2%
O=C(NCc1cccs1)c1cc2cc(-c3ccccc3)cc(Cl)c2[nH]1 [Compound 106, 7-Chloro-5-phenyl-1H-indole-2-carboxylic Acid (thiophen-2-ylmethyl)-amide]	60.8%
O=C(NCc1cccs1)c1cc2cc(-c3ccccc3)cc(C(F)(F)F)n2n1 [Compound 107, 5-Phenyl-7-trifluoromethyl-pyrazolo[1,5-a]pyridine-2-carboxylic Acid (thiophen-2-ylmethyl)-amide]	82.4%
N#Cc1cc(-c2ccccc2)cc2cc(C(=O)NCc3cccs3)nn12 [Compound 108, 7-Cyano-5-phenyl-pyrazolo[1,5-a]pyridine-2-carboxylic acid (thiophen-2-ylmethyl)-amide]	52.2%
O=C(NCc1cccs1)c1[nH]c2c(Cl)cc(-c3ccccc3)cc2c1Cl [Compound 110, 3,7-Dichloro-5-phenyl-1H-indole-2-carboxylic acid (thiophen-2-ylmethyl)-amide]	35.9%
O=C(NCc1cccs1)c1cc2cc(-c3ccccc3)cc(Br)n2n1 [Compound 111, 7-Bromo-5-phenyl-pyrazolo[1,5-a]pyridine-2-carboxylic Acid (thiophen-2-ylmethyl)-amide]	64.2%
O=C(NCc1cccs1)c1nn2c(Br)cc(-c3ccccc3)cc2c1Cl [Compound 112, 7-Bromo-3-chloro-5-phenyl-pyrazolo[1,5-a]pyridine-2-carboxylic Acid (thiophen-2-ylmethyl)-amide]	74.2%
O=C(NCc1cccs1)c1nn2c(Br)cc(-c3ccccc3)cc2c1Br [Compound 113, 3,7-dibromo-5-phenyl-pyrazolo[1,5-a]pyridine-2-carboxylic Acid (thiophen-2-ylmethyl)-amide]	77.3%
Cc1cc(-c2ccccc2)cc2cc(C(=O)NCc3cccs3)nn12 [Compound 114, 7-Methyl-5-phenyl-pyrazolo[1,5-a]pyridine-2-carboxylic acid (thiophen-2-ylmethyl)-amide]	37.9%
Cc1c(C(=O)NCc2cccs2)nn2c(C)cc(-c3ccccc3)cc12 [Compound 115, 3,7-dimethyl-5-phenyl-pyrazolo[1,5-a]pyridine-2-carboxylic Acid (thiophen-2-ylmethyl)-amide]	55.3%
COc1cc(-c2ccccc2)cc2cc(C(=O)NCc3cccs3)nn12 [Compound 117, 7-Methoxy-5-phenyl-pyrazolo[1,5-a]pyridine-2-carboxylic Acid (thiophen-2-ylmethyl)-amide]	25.8%
O=C(NCc1cccs1)c1nn2c(I)cc(-c3ccccc3)cc2c1I [Compound 119, 3,7-diiodo-5-phenyl-pyrazolo[1,5-a]pyridine-2-carboxylic Acid (thiophen-2-ylmethyl)-amide]	71.5%
O=C(NCc1cccs1)c1nn2c(I)cc(-c3ccccc3)cc2c1Br [Compound 120, 3-Bromo-7-iodo-5-phenyl-pyrazolo[1,5-a]pyridine-2-carboxylic Acid (thiophen-2-ylmethyl)-amide]	66.6%
O=C(NCc1cccs1)c1nn2c(I)cc(-c3ccccc3)cc2c1Cl [Compound 121, 3-Chloro-7-iodo-5-phenyl-pyrazolo[1,5-a]pyridine-2-carboxylic Acid (thiophen-2-ylmethyl)-amide]	73.9%
O=C(NCc1cccs1)c1nn2c(C(F)(F)F)cc(-c3ccccc3)cc2c1Cl [Compound 122, 3-Chloro-5-phenyl-7-trifluoromethyl-pyrazolo[1,5-a]pyridine-2-carboxylic Acid (thiophen-2-ylmethyl)-amide]	94.3%
O=C(NCc1ccc(Cl)s1)c1nn2c(C(F)(F)F)cc(-c3ccccc3)cc2c1Cl [Compound 123, 3-Chloro-5-phenyl-7-trifluoromethyl-pyrazolo[1,5-a]pyridine-2-carboxylic Acid (5-chloro-thiophen-2-ylmethyl)-amide]	46.1%
O=C(NCc1ccco1)c1cc2cc(-c3ccccc3)cc(I)n2n1 [Compound 124, 7-Iodo-5-phenyl-pyrazolo[1,5-a]pyridine-2-carboxylic Acid (furan-2-ylmethyl)-amide]	54.3%
